# Measurements from patent US20030215516A1, “Process for production of crystals of a medicinally effective ingredient, crystals obtained thereby and pharmaceutical preparations containing them” (priority 2002, published 2003).
# Like-named read-outs stand apart in the source and are kept apart here. Marks after values point to notes of the source that are not given here.
# Legend:
# [1] = Particle size distribution (Sympatec HELOS, dry dispersion); type: physicochemical
# Excerpt: Particle Size Distribution:
# Sympatec HELOS (H0445), dry dispersion system (RODOS), pressure 2 bar
# [2] = Excerpt: Content Determination according to USP/Ph. Eur. for individual capsules after elution through HPLC with external calibration
# (§1) Column: LiChrosphere 5μ RP-18 encapped, 150×3 mm
# (§2) Eluent: acetonitrile/water=45/55
# [3] = Active ingredient release from 1 mg capsule / 1 mg tablet; type: physicochemical; conditions: 0.3% SDS in water
# Procedure: The release values were compared in a test medium, which comprises 0.3% SDS in water, with paddle stirring, 100 rpm.
# Active Ingredient Release:
# Active ingredient release measured in 1000 mL water with 0.3% sodium dodecyl sulfate, 100 rpm
# Content Determination by HPLC with external calibration
# as §1, §2
# [4] = Example 1, spray-dried microcrystals
# [5] = Example 2, primary particle size
# [6] = Example 3, primary particle size
# [7] = after drying on filter (from ethyl acetate suspension)
# [8] = after spray-drying (from ethanol/water suspension)
# [9] = suspension in ethanol/water (90/10) with 10% by weight microcrystalline J956, before drying
# [10] = suspension in ethyl acetate with 14% by weight microcrystalline J956, before drying
# [11] = 1 mg capsule, microcrystals X50 3.4/X100 25 μm
# [12] = 1 mg capsule, microcrystals X50 5.2/X100 30 μm
# [13] = 1 mg capsule, microcrystals X50 6.6/X100 43 μm
# [14] = 1 mg capsule, microcrystals X50 8.7/X100 43 μm
# [15] = 1 mg capsule, microcrystals X50 14.1/X100 87 μm
# [16] = 1 mg tablet, microcrystals X50 10.6/X100 73 μm
# [17] = Example 4, primary particle size
# [18] = Example 6, primary particle size
# [19] = Example 7, primary particle size
compound,measurement,setting,value
"CCNC(=O)ON=Cc1ccc(C2CC3(C)C(CCC3(COC)OC)C3CCC4=CC(=O)CCC4=C23)cc1 (stereo not drawn) [J956, 11β-{4-[(ethylaminocarbonyl)oximinomethyl]phenyl}-17β-methoxy-17α-methoxymethyl-estra-4,9-dien-3-one]",Particle size X10,[1]; [4],1.75 μm
same,Particle size X50,[1]; [4],6.04 μm
same,Particle size X100,[1]; [4],36 μm
same,Particle size X10,"[1]; Example 2, final",4 μm
same,Particle size X50,"[1]; Example 2, final",13 μm
same,Particle size X100,"[1]; Example 2, final",73 μm
same,Particle size X10,[1]; [5],3 μm
same,Particle size X50,[1]; [5],9 μm
same,Particle size X100,[1]; [5],61 μm
same,Particle size X10,"[1]; Example 3, final",1.4 μm
same,Particle size X50,"[1]; Example 3, final",5.4 μm
same,Particle size X100,"[1]; Example 3, final",30 μm
same,Particle size X10,[1]; [6],1.2 μm
same,Particle size X50,[1]; [6],3.4 μm
same,Particle size X100,[1]; [6],30 μm
same,average particle diameter (×50),[1]; after dissolution and re-crystallization of 40 percent of the precipitate from 20 percent by weight ethyl acetate solution,7.8 μm
same,Particle diameter X10,[1]; [7],2.7 μm
same,Particle diameter X50,[1]; [7],10.61 μm
same,Particle diameter X90,[1]; [7],24 μm
same,Particle diameter X100,[1]; [7],73 μm
same,Particle diameter X10,[1]; [8],2.25 μm
same,Particle diameter X50,[1]; [8],8.03 μm
same,Particle diameter X90,[1]; [8],17 μm
same,Particle diameter X100,[1]; [8],43 μm
same,increase of the maximum particle size (×100),[1]; during dissolution and re-crystallization of 40 percent of the precipitate from 20 percent by weight ethyl acetate solution,scarcely measurable
same,average particle diameter (×50),"[1]; precipitated from a 20 percent by weight ethyl acetate solution, before dissolution and re-crystallization",4.9 μm
same,Particle diameter X10,[1]; [9],2.11 μm
same,Particle diameter X50,[1]; [9],8.6 μm
same,Particle diameter X90,[1]; [9],19 μm
same,Particle diameter X100,[1]; [9],51 μm
same,Particle diameter X10,[1]; [10],2.62*** μm
same,Particle diameter X50,[1]; [10],10.4 μm
same,Particle diameter X90,[1]; [10],24 μm
same,Particle diameter X100,[1]; [10],73 μm
same,CUT value spread: Confidence Interval %,[2]; [11],2.23%
same,"CUT value spread: RSD, %",[2]; [11],3.56%
same,CUT value spread: Confidence Interval %,[2]; [12],1.20%
same,"CUT value spread: RSD, %",[2]; [12],2.08%
same,CUT value spread: Confidence Interval %,[2]; [13],1.08%
same,"CUT value spread: RSD, %",[2]; [13],1.57%
same,CUT value spread: Confidence Interval %,[2]; [14],0.93%
same,"CUT value spread: RSD, %",[2]; [14],1.38%
same,CUT value spread: Confidence Interval %,[2]; [15],1.77%
same,"CUT value spread: RSD, %",[2]; [15],2.50%
same,CUT value spread: Confidence Interval %,[2]; [16],1.16%
same,"CUT value spread: RSD, %",[2]; [16],1.70%
same,RELEASE in %,"[3]; 1 mg capsule, microcrystals X50 3.4/X100 25 μm, 0 min, paddle 100 rpm",0%
same,RELEASE in %,"[3]; 1 mg capsule, microcrystals X50 3.4/X100 25 μm, 10 min, paddle 100 rpm",90.7%
same,RELEASE in %,"[3]; 1 mg capsule, microcrystals X50 3.4/X100 25 μm, 20 min, paddle 100 rpm",97.3%
same,RELEASE in %,"[3]; 1 mg capsule, microcrystals X50 3.4/X100 25 μm, 30 min, paddle 100 rpm",98.1%
same,RELEASE in %,"[3]; 1 mg capsule, microcrystals X50 3.4/X100 25 μm, 45 min, paddle 100 rpm",99.9%
same,RELEASE in %,"[3]; 1 mg capsule, microcrystals X50 5.2/X100 30 μm, 0 min, paddle 100 rpm",0%
same,RELEASE in %,"[3]; 1 mg capsule, microcrystals X50 5.2/X100 30 μm, 10 min, paddle 100 rpm",89.8%
same,RELEASE in %,"[3]; 1 mg capsule, microcrystals X50 5.2/X100 30 μm, 20 min, paddle 100 rpm",93.5%
same,RELEASE in %,"[3]; 1 mg capsule, microcrystals X50 5.2/X100 30 μm, 30 min, paddle 100 rpm",93.4%
same,RELEASE in %,"[3]; 1 mg capsule, microcrystals X50 5.2/X100 30 μm, 45 min, paddle 100 rpm",95.6%
same,RELEASE in %,"[3]; 1 mg capsule, microcrystals X50 6.6/X100 43 μm, 0 min, paddle 100 rpm",0%
same,RELEASE in %,"[3]; 1 mg capsule, microcrystals X50 6.6/X100 43 μm, 10 min, paddle 100 rpm",93.2%
same,RELEASE in %,"[3]; 1 mg capsule, microcrystals X50 6.6/X100 43 μm, 20 min, paddle 100 rpm",95.9%
same,RELEASE in %,"[3]; 1 mg capsule, microcrystals X50 6.6/X100 43 μm, 30 min, paddle 100 rpm",96.7%
same,RELEASE in %,"[3]; 1 mg capsule, microcrystals X50 6.6/X100 43 μm, 45 min, paddle 100 rpm",96.8%
same,RELEASE in %,"[3]; 1 mg capsule, microcrystals X50 8.7/X100 43 μm, 0 min, paddle 100 rpm",0%
same,RELEASE in %,"[3]; 1 mg capsule, microcrystals X50 8.7/X100 43 μm, 10 min, paddle 100 rpm",93.5%
same,RELEASE in %,"[3]; 1 mg capsule, microcrystals X50 8.7/X100 43 μm, 20 min, paddle 100 rpm",96.7%
same,RELEASE in %,"[3]; 1 mg capsule, microcrystals X50 8.7/X100 43 μm, 30 min, paddle 100 rpm",98.5%
same,RELEASE in %,"[3]; 1 mg capsule, microcrystals X50 8.7/X100 43 μm, 45 min, paddle 100 rpm",99.7%
same,RELEASE in %,"[3]; 1 mg capsule, microcrystals X50 14.1/X100 87 μm, 0 min, paddle 100 rpm",0%
same,RELEASE in %,"[3]; 1 mg capsule, microcrystals X50 14.1/X100 87 μm, 10 min, paddle 100 rpm",90.2%
same,RELEASE in %,"[3]; 1 mg capsule, microcrystals X50 14.1/X100 87 μm, 20 min, paddle 100 rpm",95.3%
same,RELEASE in %,"[3]; 1 mg capsule, microcrystals X50 14.1/X100 87 μm, 30 min, paddle 100 rpm",96.0%
same,RELEASE in %,"[3]; 1 mg capsule, microcrystals X50 14.1/X100 87 μm, 45 min, paddle 100 rpm",96.3%
same,RELEASE in %,"[3]; 1 mg tablet, microcrystals X50 10.6/X100 73 μm, 0 min, paddle, 100 rpm",0%
same,RELEASE in %,"[3]; 1 mg tablet, microcrystals X50 10.6/X100 73 μm, 10 min, paddle, 100 rpm",73.7%
same,RELEASE in %,"[3]; 1 mg tablet, microcrystals X50 10.6/X100 73 μm, 20 min, paddle, 100 rpm",90.3%
same,RELEASE in %,"[3]; 1 mg tablet, microcrystals X50 10.6/X100 73 μm, 30 min, paddle, 100 rpm",91.85%
same,RELEASE in %,"[3]; 1 mg tablet, microcrystals X50 10.6/X100 73 μm, 45 min, paddle, 100 rpm",96.6%
"CCCCCCCCCCC(=O)O[C@H]1CC[C@H]2[C@@H]3CCC4=CC(=O)CC[C@]4(C)[C@H]3CC[C@]12C [testosterone undecanoate, reference compound]",Particle size X10,"[1]; Example 4, 1st cycle",17 μm
same,Particle size X50,"[1]; Example 4, 1st cycle",41 μm
same,Particle size X99,"[1]; Example 4, 1st cycle",100 μm
same,Particle size X100,"[1]; Example 4, 1st cycle",120 μm
same,Particle size X10,[1]; [17],6 μm
same,Particle size X50,[1]; [17],21 μm
same,Particle size X99,[1]; [17],100 μm
same,Particle size X100,[1]; [17],120 μm
"C#C[C@]1(OC(C)=O)CC[C@H]2[C@@H]3CCC4=CC(=O)CC[C@@H]4[C@H]3CC[C@@]21C [norethisterone acetate, reference compound]",Particle size X10,"[1]; Example 6, end",8.5 μm
same,Particle size X50,"[1]; Example 6, end",30.4 μm
same,Particle size X99,"[1]; Example 6, end",87 μm
same,Particle size X100,"[1]; Example 6, end",100 μm
same,Particle size X10,[1]; [18],4 μm
same,Particle size X50,[1]; [18],14 μm
same,Particle size X99,[1]; [18],55 μm
same,Particle size X100,[1]; [18],87 μm
"C[C@]1(O)CC[C@H]2[C@@H]3CCC4=CC(=O)CC[C@@H]4[C@H]3CC[C@@]21C [methylnortestosterone, reference compound]",Particle size X10,[1]; [19],1.32 μm
same,Particle size X50,[1]; [19],3.96 μm
same,Particle size X99,[1]; [19],14 μm
same,Particle size X100,[1]; [19],18 μm
same,Particle size X10,"[1]; Example 7, spray-dried",1.36 μm
same,Particle size X50,"[1]; Example 7, spray-dried",3.94 μm
same,Particle size X99,"[1]; Example 7, spray-dried",14 μm
same,Particle size X100,"[1]; Example 7, spray-dried",18 μm
"CCNC(=O)ON=Cc1ccc(C2CC3(C)C(CCC3(COC)OC)C3CCC4=CC(=O)CCC4=C23)cc1 (stereo not drawn) [Micronizate, 11β-{4-[(ethylaminocarbonyl)oximinomethyl]phenyl}-17β-methoxy-17α-methoxymethyl-estra-4,9-dien-3-one, reference compound]",CUT value spread: Confidence Interval %,"[2]; 1 mg capsule, micronized J956",1.72%
same,"CUT value spread: RSD, %","[2]; 1 mg capsule, micronized J956",2.56%
same,CUT value spread: Confidence Interval %,"[2]; 1 mg tablet, micronized J956",1.72%
same,"CUT value spread: RSD, %","[2]; 1 mg tablet, micronized J956",2.56%
same,RELEASE in %,"[3]; 1 mg capsule, micronized J956, 0 min, paddle 100 rpm",0%
same,RELEASE in %,"[3]; 1 mg capsule, micronized J956, 10 min, paddle 100 rpm",92.1%
same,RELEASE in %,"[3]; 1 mg capsule, micronized J956, 20 min, paddle 100 rpm",94.3%
same,RELEASE in %,"[3]; 1 mg capsule, micronized J956, 30 min, paddle 100 rpm",94.6%
same,RELEASE in %,"[3]; 1 mg capsule, micronized J956, 45 min, paddle 100 rpm",94.9%
same,RELEASE in %,"[3]; 1 mg tablet, micronized J956, 0 min, paddle, 100 rpm",0%
same,RELEASE in %,"[3]; 1 mg tablet, micronized J956, 10 min, paddle, 100 rpm",92.1%
same,RELEASE in %,"[3]; 1 mg tablet, micronized J956, 20 min, paddle, 100 rpm",94.3%
same,RELEASE in %,"[3]; 1 mg tablet, micronized J956, 30 min, paddle, 100 rpm",94.6%
same,RELEASE in %,"[3]; 1 mg tablet, micronized J956, 45 min, paddle, 100 rpm",94.9%
